≈ marks a conversion by molar mass, not a printed value. Calls of active or inactive are those of the source. The rule behind the calls is not given here. Bridge positions count the residues as written; N and C are the ends. Square brackets hold non-standard residues; d marks the D form. Peptide text beside a SMILES is read from it. * marks the point of attachment. X1 = CC[C@H](C)CCCCC(=O)*; Dab = NCC[C@H](N)C(=O)O
Tests used:
Escherichia coli [1] = assay: Antibacterial activity against polymyxin-B resistant Escherichia coli MG1655; assay type: functional
Escherichia coli [2] = assay: Antibacterial activity against Escherichia coli MG1655; assay type: functional
Escherichia coli [3] = assay: Antibacterial activity against resistant Escherichia coli MG1655; assay type: functional
Escherichia coli [4] = assay: Antibacterial activity against Escherichia coli MG1655 in presence of 6.25 mg/l perforone; assay type: functional
Escherichia coli [5] = assay: Antibacterial activity against Escherichia coli MG1655 in presence of 50 mg/l perforone; assay type: functional
Escherichia coli [6] = assay: Synergistic antibacterial activity against polymyxin B resistant Escherichia coli MG1655 assessed as fractional inhibitory concentration by checkerboard assay; assay type: functional
Escherichia coli [7] = assay: Synergistic antibacterial activity against polymyxin B resistant Escherichia coli MG1655 assessed as fold reduction in polymyxin B MIC by checkerboard assay; assay type: functional
Escherichia coli [8] = assay: Additive antibacterial activity against Escherichia coli MG1655 assessed as fold reduction in polymyxin B MIC at 100 mg/L by checkerboard assay; assay type: functional
Staphylococcus aureus = assay: Synergistic antibacterial activity against Staphylococcus aureus ATCC 29213 assessed as fold reduction in melittin activity at 75 mg/l by checkerboard assay; assay type: functional
Cell membrane [9] = assay: Induction of membrane permeabilization in polymyxin-B resistant Escherichia coli MG1655 assessed as fluorescence increase incubated for 10 mins in presence of polymyxin B by DiSC3(5) dye based fluorescence spectrometer analysis; assay type: subcellular
Cell membrane [10] = assay: Induction of membrane permeabilization in polymyxin-B resistant Escherichia coli MG1655 assessed as fluorescence increase incubated for 10 mins in presence of triton X-100 by DiSC3(5) dye based fluorescence spectrometer analysis; assay type: subcellular
Cell membrane [11] = assay: Induction of membrane permeabilization in polymyxin-B resistant Escherichia coli MG1655 assessed as increase in fluorescence by DiSC3(5) staining based fluorescence spectrometer analysis (reference value: 8.5); assay type: subcellular
Cell membrane [12] = assay: Induction of membrane permeabilization in polymyxin-B resistant Escherichia coli MG1655 assessed as increase in fluorescence after 4 mins by DiSC3(5) staining based fluorescence spectrometer analysis (reference value: 8.5); assay type: subcellular

CC(C)C[C@@H]1NC(=O)[C@@H](Cc2ccccc2)NC(=O)[C@H](CCN)NC(=O)[C@@H](NC(=O)[C@H](CCN)NC(=O)[C@@H](NC(=O)[C@@H](N)CCN)[C@@H](C)O)CCNC(=O)[C@H]([C@@H](C)O)NC(=O)[C@H](CCN)NC(=O)[C@H](CCN)NC1=O (H-[Dab]T[Dab][Dab][Dab][dF]L[Dab][Dab]T; lactam 4-C)
Activity (Escherichia coli [1]): Active

CC[C@H](C)CCCCC(=O)N[C@@H](CCN)C(=O)N[C@H](C(=O)N[C@@H](CCN)C(=O)N[C@H]1CCNC(=O)[C@H]([C@@H](C)O)NC(=O)[C@H](CCN)NC(=O)[C@H](CCN)NC(=O)[C@H](CC(C)C)NC(=O)[C@@H](Cc2ccccc2)NC(=O)[C@H](CCN)NC1=O)[C@@H](C)O (X1-[Dab]T[Dab][Dab][Dab][dF]L[Dab][Dab]T; lactam 4-C)
MIC (Escherichia coli [2]): 0.5 µg/mL (≈ 0.415 µM)
MIC (Escherichia coli [3]): 256 µg/mL (≈ 213 µM)
MIC (Escherichia coli [1]): 256 µg/mL (≈ 213 µM)
MIC (Escherichia coli [4]): 2 µg/mL
MIC (Escherichia coli [5]): 16 µg/mL

C[C@H]1c2cccc(O)c2C(=O)C2=C(O)[C@]3(O)C(=O)C(C(N)=O)=C(O)[C@@H](N(C)C)[C@@H]3[C@@H](O)[C@@H]21.O [DOXYCYCLINE]
MIC (Escherichia coli [2]): 0.25 µg/mL
MIC (Escherichia coli [3]): 60 µg/mL

COc1c2c(nc3occc13)[C@@]1(OC)CCC(C)(C)O[C@@]1(O)CC2
FIC (Escherichia coli [6]): 0.19
fold change (FC) (Escherichia coli [7]): 16
fold change (FC) (Escherichia coli [8]): 2
fold change (FC) (Staphylococcus aureus): 2
Activity (Cell membrane [9]): inactive
Activity (Cell membrane [10]): inactive
Flu intensity (Cell membrane [11]): 29.2 a.u.
Flu intensity (Cell membrane [12]): 19.7 a.u.

CC[C@H]1OC(=O)[C@H](C)[C@@H](O[C@H]2C[C@@](C)(OC)[C@@H](O)[C@H](C)O2)[C@H](C)[C@@H](O[C@@H]2O[C@H](C)C[C@H](N(C)C)[C@H]2O)[C@](C)(O)C[C@@H](C)CN(C)[C@H](C)[C@@H](O)[C@]1(C)O [AZITHROMYCIN]
MIC (Escherichia coli [2]): 4 µg/mL (≈ 5.34 µM)
MIC (Escherichia coli [3]): 128 µg/mL (≈ 171 µM)

From ChEMBL document CHEMBL5356976, “Discovery of an adjuvant that resensitizes polymyxin B-resistant bacteria” (2024)
